{
  "source": "patent US20230348564A1",
  "about": "“ANTI-CANCER PROTEINS” (UNICHEM LABORATORIES LTD, priority 2020, published 2023)",
  "key": {"[1]": {"system": "PANC-1", "experiment": "JC-1 assay, mitochondrial membrane depolarization", "assay_type": "cell-based, Human", "conditions": "16h", "procedure": "(§1) To evaluate the in vitro apoptotic effect of recombinant lectin having the amino acid sequence of SEQ ID NO.2 in MDA-MB-231 (breast cancer) and PANG-1 (pancreatic cancer) cell line by JC-1 assay, an increase in mitochondrial membrane depolarization was used as a marker of apoptosis. […] 2 using JC-1 dye based method. […] The cell lines were grown in Dulbecco's Modified Eagle Medium (DMEM)+10% heat inactivated FBS at 37° C. (95% humidity and 5% CO2). […] Recombinant lectin having the amino acid sequence of SEQ ID NO. 2 was diluted in serum free medium. Doxorubicin was used as positive control and stock solution was prepared in dimethyl sulfoxide (DMSO). […] The cells were then incubated overnight under growth conditions to allow the cell recovery and exponential growth. Cells were treated with the recombinant lectin of SEQ ID NO. […] Following respective treatments the cells in the above plate were incubated for 16h in CO2 incubator at 37° C., 5% CO2 and 95% humidity.\n(§2) After 16h of incubation, the supernatants were discarded and 100 μL of JC1-dye solution (prepared by diluting 1 mM DMSO stock in to 10 μM in 1×PBS) was added to each well. The cells were then incubated with the dye in CO2 incubator at 37° C. for 15 min. After 15 min of incubation, the supernatant was removed and the cells were washed twice with 1×PBS and then 100 μL of 1×PBS was added to each well. Red fluorescence (excitation 550 nm, emission 600 nm) and green fluorescence (excitation 485 nm, emission 535 nm) were measured using Biotek Synergy FIT plate reader. The mitochondrial membrane potential […] was calculated as the ratio of intensity of red fluorescence to intensity of green fluorescence described as follows:\n(§3) ΔΨM=Intensity of red fluorescence/Intensity of green fluorescence\n(§4) The percentage decrease of Red fluorescence/Green fluorescence corresponding to each treatment was calculated using the following formula:\n(§5) Where X=Δψm corresponding to treated cells R=ΔΨM corresponding to control wells."}, "[2]": {"system": "MDA-MB-231", "experiment": "JC-1 assay, mitochondrial membrane depolarization", "assay_type": "cell-based, Human", "conditions": "16h", "procedure": "as §1, §2, §3, §4, §5"}, "[3]": {"system": "PBMCs (Peripheral blood mononuclear cells)", "experiment": "Calcein AM cytotoxicity assay", "conditions": "SEQ ID 2 80 μg/mL, doxorubicin 100 μM; 48h", "procedure": "(§6) All the cancer cell lines were procured from National Centre for Cell Science, Pune (India). The cell lines were maintained under conditions as described in Table 21 below. The cell lines were sub-cultured by trypsinization followed by splitting the cell suspension into fresh flasks and supplementing with fresh culture medium.\n(§7) All the cell lines were grown in specified media at 37° C. with 95% Humidity and […].\n(§8) The cells were trypsinized, counted by Trypan blue method in Neuebauer's Chamber and plated in wells of flat bottom 96-well plate (dark walled plate, flat bottom) at the density corresponding to 10×10^3 cells/well/180 μl medium.\n(§9) Following overnight incubation, the cells were treated with test item (20 μL) at concentrations ranging from 2.5-80 μg/mL, so that the total volume in each well is 200 μL.\n(§10) The cells were incubated with the test items or positive control for a time period of 48h. Following incubation, the cell cytotoxicity was estimated using Calcein AM Cell Viability Assay Kit from R&D systems (Cat No. 4892-010-K).\n(§11) Fluorescence was measured at 485 nm (excitation/528 run (emission) spectra using Synergy HT micro plate reader.\n(§12) Percentage cytotoxicity wrt untreated cells was calculated using formula:\n(§13) Cytotoxicity=[(RFUuntreated−RFUsample)/RFUuntreated]*100\n(§14) RFU: relative fluorescence units\n(§15) IC50 value was calculated using Graph-Pad Prism version 4.01 software."}, "[4]": {"system": "ZR-75-1 (Human ductal carcinoma)", "experiment": "Calcein AM cytotoxicity assay", "conditions": "SEQ ID 2 80 μg/mL, doxorubicin 100 μM; 48h", "procedure": "as §6, §7, §8, §9, §10, §11, §12, §13, §14, §15"}, "[5]": {"system": "PA-1 (Human Ovary carcinoma)", "experiment": "Calcein AM cytotoxicity assay", "conditions": "SEQ ID 2 80 μg/mL, doxorubicin 100 μM; 48h", "procedure": "as §6, §7, §8, §9, §10, §11, §12, §13, §14, §15"}, "[6]": {"system": "KB (Human cervical carcinoma)", "experiment": "Calcein AM cytotoxicity assay", "conditions": "SEQ ID 2 80 μg/mL, doxorubicin 100 μM; 48h", "procedure": "as §6, §7, §8, §9, §10, §11, §12, §13, §14, §15"}, "[7]": {"system": "AGS (Human stomach adenocarcinoma)", "experiment": "Calcein AM cytotoxicity assay", "conditions": "SEQ ID 2 80 μg/mL, doxorubicin 100 μM; 48h", "procedure": "as §6, §7, §8, §9, §10, §11, §12, §13, §14, §15"}},
  "data": [
    {"smiles": "COc1cccc2c1C(=O)c1c(O)c3c(c(O)c1C2=O)C[C@@](O)(C(=O)CO)C[C@@H]3O[C@H]1C[C@H](N)[C@H](O)[C@H](C)O1", "note": "[Doxorubicin, reference compound]", "values": [
      {"measurement": "Average Green fluorescence", "setting": "[1]; 0.1 μM", "value": 258.5},
      {"measurement": "Average Red fluorescence", "setting": "[1]; 0.1 μM", "value": 653.7},
      {"measurement": "Percentage decrease in MMP (%)", "setting": "[1]; 0.1 μM", "value": "−21.0", "unit": "%"},
      {"measurement": "Average Green fluorescence", "setting": "[1]; 1 μM", "value": 282.3},
      {"measurement": "Average Red fluorescence", "setting": "[1]; 1 μM", "value": 555.3},
      {"measurement": "Percentage decrease in MMP (%)", "setting": "[1]; 1 μM", "value": 5.9, "unit": "%"},
      {"measurement": "Average Green fluorescence", "setting": "[1]; 10 μM", "value": 208.3},
      {"measurement": "Average Red fluorescence", "setting": "[1]; 10 μM", "value": 350.0},
      {"measurement": "Percentage decrease in MMP (%)", "setting": "[1]; 10 μM", "value": 19.6, "unit": "%"},
      {"measurement": "Average Green fluorescence", "setting": "[1]; 25 μM", "value": 186.3},
      {"measurement": "Average Red fluorescence", "setting": "[1]; 25 μM", "value": 283.0},
      {"measurement": "Percentage decrease in MMP (%)", "setting": "[1]; 25 μM", "value": 27.3, "unit": "%"},
      {"measurement": "Average Green fluorescence", "setting": "[1]; 50 μM", "value": 161.7},
      {"measurement": "Average Red fluorescence", "setting": "[1]; 50 μM", "value": 192.5},
      {"measurement": "Percentage decrease in MMP (%)", "setting": "[1]; 50 μM", "value": 43.0, "unit": "%"},
      {"measurement": "Average Green fluorescence", "setting": "[2]; 0.1 μM", "value": 473.0},
      {"measurement": "Average Red fluorescence", "setting": "[2]; 0.1 μM", "value": 465.3},
      {"measurement": "Percentage decrease in MMP (%)", "setting": "[2]; 0.1 μM", "value": 58.8, "unit": "%"},
      {"measurement": "Average Green fluorescence", "setting": "[2]; 1 μM", "value": 345.5},
      {"measurement": "Average Red fluorescence", "setting": "[2]; 1 μM", "value": 343.3},
      {"measurement": "Percentage decrease in MMP (%)", "setting": "[2]; 1 μM", "value": 58.3, "unit": "%"},
      {"measurement": "Average Green fluorescence", "setting": "[2]; 10 μM", "value": 534.0},
      {"measurement": "Average Red fluorescence", "setting": "[2]; 10 μM", "value": 580.7},
      {"measurement": "Percentage decrease in MMP (%)", "setting": "[2]; 10 μM", "value": 54.4, "unit": "%"},
      {"measurement": "Average Green fluorescence", "setting": "[2]; 25 μM", "value": 336.3},
      {"measurement": "Average Red fluorescence", "setting": "[2]; 25 μM", "value": 376.7},
      {"measurement": "Percentage decrease in MMP (%)", "setting": "[2]; 25 μM", "value": 53.0, "unit": "%"},
      {"measurement": "Average Green fluorescence", "setting": "[2]; 50 μM", "value": 318.0},
      {"measurement": "Average Red fluorescence", "setting": "[2]; 50 μM", "value": 663.7},
      {"measurement": "Percentage decrease in MMP (%)", "setting": "[2]; 50 μM", "value": 12.5, "unit": "%"},
      {"measurement": "Cytotoxicity at highest concentration tested", "setting": "[3]", "value": 64.3, "unit": "%"},
      {"measurement": "Cytotoxicity at highest concentration tested", "setting": "[4]", "value": 52.6, "unit": "%"},
      {"measurement": "Cytotoxicity at highest concentration tested", "setting": "[5]", "value": 82.3, "unit": "%"},
      {"measurement": "Cytotoxicity at highest concentration tested", "setting": "[6]", "value": 92.0, "unit": "%"},
      {"measurement": "Cytotoxicity at highest concentration tested", "setting": "[7]", "value": 81.0, "unit": "%"}
    ]}
  ]
}
